As usually defined, the GI50 is the concentration giving 50% growth inhibition.

24 compounds from ChEMBL document CHEMBL1201862, “PubChem BioAssay data set” (2004) can be followed below.

What all share (experiment): DTP human tumour cell line panel, 48 h
Experiment [1] concerns M19-MEL.
In experiment [2] the test system is DLD-1.
Experiment [3] deals with XF498.
Experiment [4] has as its system RXF 631.
Experiment [5] concerns DMS-114.
Experiment [6] has as its system DMS-273.
The subject of experiment [7] is KM-20L2.
Experiment [8] concerns SNB-78.
Experiment [9] concerns LXFL 529.

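Cultured in 96-well plates, cells were exposed to test compound for 48 hours across five concentrations. Here, GI50 denotes the concentration required for 50% inhibition of growth.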 The source made the active and inactive calls. Rule as the data show it: active = GI50 up to about 1.1 µM and inactive = higher. Bounds are passed on as bounds.

Consider `O=C(c1ccc(Cl)cc1Cl)N(/N=C/C=C/c1ccccc1)c1nnc(-c2ccccc2)c(-c2ccccc2)n1`, for which the GI50 in experiment [1], in experiment [2], in [3], in [4], in [5] and in [6] was > 100 µM (inactive) throughout. Also, the GI50 in [7] and in [8] was > 100 µM (inactive) each time.
Take `CC(C)CC(N)C(=O)OCN1C(=O)C2C3C=CC(C2C1=O)C1C2C(=O)N(COC(=O)C(N)CC(C)C)C(=O)C2C31` (configuration not stated): the GI50 in experiment [9] is > 100 µM (inactive); in experiment [2] it was > 86.7 µM (inactive); in experiment [4], > 100 µM (inactive); in experiment [5], > 62.1 µM (inactive); in [6] it was 97.3 µM (inactive); in experiment [7], > 100 µM (inactive). Also, the GI50 in [8] is > 100 µM (inactive).
`Cn1nc(-c2ccccc2)c(C(=O)/C=C/c2ccc(F)cc2)c(N2CCCC2)c1=O`: the GI50 in [9] was 12.8 µM (inactive); in [1], 15.1 µM (inactive); in [2], 11.2 µM (inactive); in experiment [3] it was 20.8 µM (inactive); in experiment [5], 11.5 µM (inactive); in experiment [6] it was 14.8 µM (inactive). In addition, the GI50 in [7] was 13.1 µM (inactive).
As for `COC(=O)C1Cc2c([nH]c3ccccc23)C(c2ccccc2O)N1Cc1ccccc1` (configuration not stated), the GI50 in [9] was 31.5 µM (inactive); in [1], 40.6 µM (inactive); in experiment [2], 74 µM (inactive); in experiment [4] it was 21.2 µM (inactive); in experiment [5] it was 19.8 µM (inactive); in experiment [6], 23.8 µM (inactive). Besides, the GI50 is > 46.5 µM (inactive) in experiment [7] and 34 µM (inactive) in [8].
`COc1ccc(OC)c(NC(=O)C(=O)NNC(=O)c2sc(NNC(C)=O)nc2C)c1`: the GI50 in experiment [9] was 29.4 µM (inactive); in experiment [1], 60.1 µM (inactive); in [3] it was 25.6 µM (inactive); in experiment [7], 33.4 µM (inactive); in experiment [8], 27 µM (inactive).
Regarding `C=C1C(=O)OC2/C=C(\C)C3OC3/C=C(/C(=O)OC)C(O)C(OC(=O)C3(C)OC3C)C12` (configuration not stated), the GI50 in experiment [9] was 1.36 µM (inactive); in experiment [2] it was 1.03 µM (active); in [5] it was 0.435 µM (active); in experiment [6] it was 1.59 µM (inactive); in [8] it was 1.79 µM (inactive).
Regarding `CC#CC1C2CCCC1(CSc1ccccc1)NC(=O)O2` (configuration not stated), the GI50 in experiment [9], in [1], in experiment [2], in [3], in [4] and in [5] was > 100 µM (inactive) throughout. In addition, the GI50 in [6], in [7] and in [8] was > 100 µM (inactive) in each case.
`COc1cc2c(c(OC)c1OC)-c1cccc(=O)cc1C(NC(C)=O)CC2` (configuration not stated): the GI50 is 0.125 µM (active) in [9]; 0.605 µM (active) in experiment [1]; 0.117 µM (active) in [3]; 0.0685 µM (active) in experiment [5]; 0.0509 µM (active) in experiment [6]; 0.12 µM (active) in experiment [7]. In addition, the 50% growth inhibitory concentration (GI50) in [8] was 0.0859 µM (active).
On to `O=c1c2ccccc2nc(-c2ccccc2)n1NC(=S)Nc1ccc(Cl)cc1[N+](=O)[O-]`, for which the GI50 was > 100 µM (inactive) in [9]; 54.1 µM (inactive) in experiment [1]; 87.9 µM (inactive) in experiment [2]; 31.2 µM (inactive) in experiment [5]; 49.8 µM (inactive) in [6].
Regarding `NC(=O)c1ccc([N+](=O)[O-])cc1`, the GI50 in [9], in experiment [1], in [2], in [3], in [4] and in experiment [5] was > 100 µM (inactive) each time. The GI50 in experiment [6], in [7] and in [8] was > 100 µM (inactive) in each case.
Consider `O=C1[C@@H]2C(c3c(Cl)cccc3Cl)=NO[C@@H]2C(=O)N1c1ccc(Cc2ccc(N3C(=O)[C@H]4C(c5c(Cl)cccc5Cl)=NO[C@H]4C3=O)cc2)cc1`, for which the GI50 in experiment [9], in [1], in [2], in [3], in experiment [5] and in experiment [6] was > 100 µM (inactive) each time. Also, the GI50 in experiment [7] and in experiment [8] was > 100 µM (inactive) in each case.
As for `CC(=O)C1Cn2c(nc3ccccc32)C[Se]1` (configuration not stated), the GI50 in experiment [9] was 3.2 µM (inactive); in experiment [1], 1.99 µM (inactive); in [2], 3.63 µM (inactive); in experiment [4], 2.14 µM (inactive); in [5], 2.12 µM (inactive); in experiment [7], 12.9 µM (inactive). Besides, the GI50 in experiment [8] is 4.47 µM (inactive).
In the case of `COc1ccc(CCc2cc(OC)c(O)c(OC)c2)cc1`, the GI50 was 54.8 µM (inactive) in experiment [9]; 57.1 µM (inactive) in experiment [1]; 60.1 µM (inactive) in experiment [2]; 79.4 µM (inactive) in experiment [3]; 88.1 µM (inactive) in [4]; 29 µM (inactive) in experiment [5]. Also, the values for the GI50 in experiment [6], in [7] and in experiment [8] were 46.5 µM (inactive), > 100 µM (inactive) and 30.9 µM (inactive), respectively.
Take `O=C(O)c1cc(=O)c2cc(C(=O)c3cccs3)c(Cl)c(Cl)c2o1`: the GI50 in experiment [9], in experiment [2], in [7] and in experiment [8] was > 100 µM (inactive) throughout.
For `COc1ccc(COCC(Cn2ccnc2)OCc2ccc(C(=O)O)cc2)cc1` (configuration not stated), the GI50 in experiment [9], in [1], in experiment [2], in [3], in experiment [4] and in [5] was > 100 µM (inactive) in each case. Further, the GI50 in [7] and in experiment [8] was > 100 µM (inactive) in each case.
As to `COc1cccc(N2C(=O)[C@H]3CC(C)c4c([nH]c5ccccc45)[C@H]3C2=O)c1` (some centres not stated), the GI50 in experiment [9] was 42.8 µM (inactive); in [1], 86.1 µM (inactive); in experiment [2] it was 80.5 µM (inactive); in experiment [3], 55.7 µM (inactive); in experiment [6] it was 79.4 µM (inactive); in experiment [7], > 100 µM (inactive). Moreover, the GI50 in experiment [8] was 33.3 µM (inactive).
Take `Cc1cc(O)c2c(c1)C[C@@H](O)C1=C2C(=O)c2c(O)ccc(OC3CC(O)C(OC4CC(OC5CCC(OC6CC(O)C(OC7CC(OC8CCC(O)C(C)O8)C(O)C(C)O7)C(C)O6)C(C)O5)C(O)C(C)O4)C(C)O3)c2C1=O` (some centres not stated): the GI50 in experiment [9] is 0.0155 µM (active); in experiment [1], 0.00411 µM (active); in experiment [2], 0.0173 µM (active); in experiment [3], 0.0247 µM (active); in [5], 0.0144 µM (active); in [6], 0.0209 µM (active). Besides, the GI50 was 0.0461 µM (active) in [7] and 0.0245 µM (active) in [8].
As to `COCCN1C2=CCCCC2=Nc2c(N)nc(N)nc21`, the GI50 is > 100 µM (inactive) in [9]; 24.3 µM (inactive) in experiment [1]; > 100 µM (inactive) in experiment [2]; > 100 µM (inactive) in [3]; > 100 µM (inactive) in experiment [4]; > 100 µM (inactive) in experiment [5]. Moreover, the GI50 in [6], in experiment [7] and in experiment [8] was > 100 µM (inactive) each time.
With `N=C1C=CC(=C(c2ccc(N)cc2)c2ccc(N)cc2)C=C1`, the GI50 was 1.57 µM (inactive) in experiment [9]; 4.13 µM (inactive) in experiment [1]; 5.12 µM (inactive) in experiment [2]; 2.38 µM (inactive) in experiment [3]; 2.18 µM (inactive) in [5]; 4.3 µM (inactive) in experiment [7]. Also, the GI50 in experiment [8] is 4.14 µM (inactive).
As to `O=c1c2ccccc2nc(-c2ccccc2)n1NC1OC(CO)C(O)C(O)C1O` (configuration not stated), the GI50 in [9], in [1], in experiment [2], in experiment [3], in experiment [4] and in [5] was > 100 µM (inactive) each time. For the same compound, the GI50 in [6], in experiment [7] and in experiment [8] was > 100 µM (inactive) each time.
In the case of `CCC[C@H]1O[C@@H]2CC(=O)O[C@@H]2C2=C1C(=O)C=CC2=O`, the GI50 in experiment [9] was 15.6 µM (inactive); in [1] it was 20.3 µM (inactive); in experiment [2], 17.7 µM (inactive); in experiment [6], 13.6 µM (inactive); in experiment [7], 21.4 µM (inactive); in experiment [8], 23.3 µM (inactive).
Consider `c1cc2[se][se]c3c4cccc5[se][se]c(c(c1)c23)c54`, for which the GI50 in experiment [9], in experiment [1], in experiment [2], in [3], in experiment [5] and in experiment [6] was > 100 µM (inactive) throughout. Also, the GI50 in experiment [7] and in experiment [8] was > 100 µM (inactive) in each case.
On to `Clc1ccccc1/C=C/c1cscn1`, for which the GI50 in [9], in experiment [1], in [2], in [3], in experiment [5] and in [8] was > 100 µM (inactive) each time.
For the compound `CSc1ccc(/C=C2/C[N+](C)(C)C/C(=C/c3ccc(SC)cc3)C2=O)cc1`, the GI50 was 6.25 µM (inactive) in experiment [1]; 7.78 µM (inactive) in [2]; 15.7 µM (inactive) in experiment [3]; 35.2 µM (inactive) in [4]; 6.44 µM (inactive) in experiment [5]; 62.2 µM (inactive) in experiment [8].
